In assay [1] the target is T1, NTHi Nuc (Haemophilus influenzae, UniProt Q57519).
T1 construct: gene HI_1296; N-terminal 6xHis tag (pET151/D-TOPO) cleaved with TEV protease; E. coli BL21*(DE3)
The assay is described as follows: FRET nuclease assay, Cy3/BHQ2 single-stranded 30-mer DNA. The format is biochemical. The settings on record: competitive (stated); pdTp 0.015 and 0.03 nM; enzyme 0.035 nM; 2 µM FRET substrate; 26 °C.

The target of assay [2] is T1, NTHi Nuc. The experiment in a line: thermal unfolding by dynamic light scattering. The format is binding. The settings on record: pH 7; excess pdTp; onset temperature with ligand, not a shift; ramp 1.0 °C/min. The source says: thermal unfolding by dynamic light scattering on NTHi Nuc

T1 sequence (Q57519 21-178): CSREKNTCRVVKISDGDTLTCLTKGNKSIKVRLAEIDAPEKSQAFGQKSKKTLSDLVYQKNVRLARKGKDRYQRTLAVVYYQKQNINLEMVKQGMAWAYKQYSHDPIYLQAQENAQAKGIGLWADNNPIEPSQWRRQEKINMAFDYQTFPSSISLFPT

`Cc1cn([C@H]2C[C@H](OP(=O)(O)O)[C@@H](COP(=O)(O)O)O2)c(=O)[nH]c1=O` [thymidine 3,5-bisphosphate]: at NTHi Nuc [1], the “FRET nuclease assay, Cy3/BHQ2 single-stranded 30-mer DNA” value is “Half and equimolar concentrations of pdTp impacted initial rates of endonuclease activity”. Further, the Tonset at NTHi Nuc [2] is 48.1 ± 1.45 °C.

The record behind these values is article PMC5944969, “Characterization of a nontypeable Haemophilus influenzae thermonuclease” (PLoS ONE, 2018).
